From US9695154B2, “Heteroaryl inhibitors of sumo activating enzyme” (MILLENNIUM PHARMACEUTICALS, INC., priority 2013, dated 2017) come the findings set out here.

The structures appear in SMILES notation.

This assay has as its target T1, recombinant human SAE enzyme (Homo sapiens, UniProt Q9UBT2).
T1 sequence (Q9UBT2 1-640): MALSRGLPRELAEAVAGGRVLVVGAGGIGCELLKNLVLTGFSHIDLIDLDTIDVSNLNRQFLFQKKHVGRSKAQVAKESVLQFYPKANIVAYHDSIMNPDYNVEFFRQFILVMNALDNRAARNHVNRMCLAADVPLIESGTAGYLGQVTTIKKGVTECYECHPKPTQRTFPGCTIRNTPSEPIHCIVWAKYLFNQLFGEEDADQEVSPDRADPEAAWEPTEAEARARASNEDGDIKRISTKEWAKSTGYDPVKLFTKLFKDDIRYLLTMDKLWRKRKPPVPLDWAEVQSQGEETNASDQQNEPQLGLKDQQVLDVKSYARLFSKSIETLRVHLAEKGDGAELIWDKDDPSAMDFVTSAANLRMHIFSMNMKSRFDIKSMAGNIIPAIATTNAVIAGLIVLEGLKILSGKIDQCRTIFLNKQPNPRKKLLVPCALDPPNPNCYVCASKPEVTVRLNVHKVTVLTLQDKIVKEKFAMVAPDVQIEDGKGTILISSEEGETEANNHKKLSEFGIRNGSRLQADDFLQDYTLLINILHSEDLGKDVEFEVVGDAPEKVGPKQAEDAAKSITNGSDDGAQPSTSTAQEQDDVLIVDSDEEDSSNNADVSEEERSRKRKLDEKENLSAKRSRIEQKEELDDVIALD
T1 sequence (Q9UBE0 1-346 partner): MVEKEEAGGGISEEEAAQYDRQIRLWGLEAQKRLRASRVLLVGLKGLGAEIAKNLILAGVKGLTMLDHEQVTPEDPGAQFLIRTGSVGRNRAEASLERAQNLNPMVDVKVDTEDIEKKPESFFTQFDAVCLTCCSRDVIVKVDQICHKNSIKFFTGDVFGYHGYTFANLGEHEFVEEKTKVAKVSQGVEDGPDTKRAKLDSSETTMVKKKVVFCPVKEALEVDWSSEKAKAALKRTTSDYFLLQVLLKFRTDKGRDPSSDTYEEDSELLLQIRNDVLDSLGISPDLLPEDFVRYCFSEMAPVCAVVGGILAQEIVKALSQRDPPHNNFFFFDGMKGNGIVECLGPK
In words: SAE HTRF Enzyme Assay. In kind it is biochemical. Particulars: for IC50: class symbols A-C; for inhibition at 0.111 µM: read-out: Percent Inhibition. The gist of the method: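 HTRF signal from Eu-anti-Flag/APC-anti-GST pairs reports Sumo-Flag loaded onto Ubc9-GST by 0.11 nM SAE. Reaction: 0.5 μM ATP, 0.125 μM Sumo-Flag, 0.01 μM Ubc9-GST, 5 mM MgCl2, pH 7.5, 105 min, 24° C. Single-concentration % inhibition or IC50 reported.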
(In general: TR-FRET usually uses a lanthanide donor and a delayed reading to cut background.)

The mark [1] stands for this setting: compound concentration 0.111 μM.

Usually IC50 stands for the point on the concentration scale where inhibition reaches its midpoint. By inhibition is commonly meant the drop in the measured response relative to a control, in per cent. For the compound `NS(=O)(=O)OC[C@H]1C[C@@H](Nc2ncncc2C(=O)c2ccn(CC3CCCCC3)n2)C[C@@H]1O` [Compound I-93, {(1R,2S,4R)-4-[(5-{[1-(cyclohexylmethyl)-1H-pyrazol-3-yl]carbonyl}pyrimidin-4-yl)amino]-2-hydroxycyclocarbonyl}methyl sulfamate], the IC50 was less than 0.01 µM. For the same compound, the inhibition at 0.111 µM under setting [1] stood at 90%.
On to `CCC#CCn1ccc(C(=O)c2cncnc2N[C@@H]2C[C@H](COS(N)(=O)=O)[C@@H](O)C2)n1` [Compound I-234, {(1R,2S,4R)-2-hydroxy-4-[(5-{[1-(pent-2-yn-1-yl)-1H-pyrazol-3-yl]carbonyl}pyrimidin-4-yl)amino]cyclopentyl}methyl sulfamate], for which the IC50 fell in the range of 0.01 to 0.1 µM. The inhibition at 0.111 µM under setting [1] was found to be 91%.
As for `NS(=O)(=O)OC[C@H]1C[C@@H](Nc2ncncc2C(=O)c2ccn(Cc3cccc(OC(F)F)c3)c2)[C@@H](F)[C@@H]1O` [Compound I-224, [(1R,2R,3R,4R)-4-{[5-({1-[3-(difluoromethoxy)benzyl]-1H-pyrrol-3-yl}carbonyl)pyrimidin-4-yl]amino}-3-fluoro-2-hydroxycyclopentyl]methyl sulfamate], the 50% inhibitory concentration (IC50) is less than 0.01 µM. Also, the inhibition at 0.111 µM under setting [1] was determined as 99%.
Take `NS(=O)(=O)OC[C@H]1C[C@@H](Nc2ncncc2C(=O)c2ccn(Cc3ccc(F)cc3Cl)n2)[C@H](O)[C@@H]1O` [Compound I-194, {(1R,2R,3S,4R)-4-[(5-{[1-(2-chloro-4-fluorobenzyl)-1H-pyrazol-3-yl]carbonyl}pyrimidin-4-yl)amino]-2,3-dihydroxycyclopentyl}methyl sulfamate]: the IC50 is less than 0.01 µM. Also, under setting [1], the inhibition at 0.111 µM was found to be 100%.
On the same counts, the results for `NS(=O)(=O)OC[C@H]1C[C@@H](Nc2ncncc2C(=O)c2ccn(Cc3ccc(Cl)c(C(F)(F)F)c3)n2)[C@@H](F)[C@@H]1O` [Compound I-156, [(1R,2R,3R,4R)-4-{[5-({1-[4-chloro-3-(trifluoromethyl)benzyl]-1H-pyrazol-3-yl}carbonyl)pyrimidin-4-yl]amino}-3-fluoro-2-hydroxycyclopentyl]methyl sulfamate] are 0.01 to 0.1 µM and 90%.
For the compound `NS(=O)(=O)OC[C@H]1C[C@@H](Nc2ncncc2C(=O)c2ccn(Cc3ccc(F)cc3C(F)(F)F)n2)C[C@@H]1O` [Compound I-328, [(1R,2S,4R)-4-{[5-({1-[4-fluoro-2-(trifluoromethyl)benzyl]-1H-pyrazol-3-yl}carbonyl)pyrimidin-4-yl]amino}-2-hydroxycyclopentyl]methyl sulfamate], the concentration for half-maximal inhibition (IC50) was 0.01 to 0.1 µM. Besides, under setting [1], the inhibition at 0.111 µM amounted to 65%.
On the same counts, the results for `NS(=O)(=O)OC[C@H]1C[C@@H](Nc2ncncc2C(=O)c2ccn(Cc3cccc(Br)c3)n2)[C@@H](F)[C@@H]1O` [Compound I-15, {(1R,2R,3R,4R)-4-[(5-{[1-(3-bromobenzyl)-1H-pyrazol-3-yl]carbonyl}pyrimidin-4-yl)amino]-3-fluoro-2-hydroxycyclopentyl}methyl sulfamate] are less than 0.01 µM and 98%.
The corresponding values for `NS(=O)(=O)OC[C@H]1C[C@@H](Nc2ncncc2C(=O)c2ccn(C3CCc4ccccc43)n2)[C@H](O)[C@@H]1O` (single isomer, unassigned) [Compound I-323, {(1R,2R,3S,4R)-4-[(5-{[1-((1R)-2,3-dihydro-1H-inden-1-yl)-1H-pyrazol-3-yl]carbonyl}pyrimidin-4-yl)amino]-2,3-dihydroxycyclopentyl}methyl sulfamate or {(1R,2R,3S,4R)-4-[(5-{[1-((1S)-2,3-dihydro-1H-inden-1-yl)-1H-pyrazol-3-yl]carbonyl}pyrimidin-4-yl)amino]-2,3-dihydroxycyclopentyl}methyl sulfamate] are 0.01 to 0.1 µM and 82%.
In the case of `CC(c1ccc(Cl)o1)n1ccc(C(=O)c2cncnc2N[C@@H]2C[C@H](COS(N)(=O)=O)[C@@H](O)[C@@H]2F)c1` (single isomer, unassigned) [Compound I-350, [(1R,2R,3R,4R)-4-{[5-({1-[(1S)-1-(5-chloro-2-furyl)ethyl]-1H-pyrrol-3-yl}carbonyl)pyrimidin-4-yl]amino}-3-fluoro-2-hydroxycyclopentyl]methyl sulfamate or [(1R,2R,3R,4R)-4-{[5-({1-[(1R)-1-(5-chloro-2-furyl)ethyl]-1H-pyrrol-3-yl}carbonyl)pyrimidin-4-yl]amino}-3-fluoro-2-hydroxycyclopentyl]methyl sulfamate], the IC50 was less than 0.01 µM. Also, the inhibition at 0.111 µM under setting [1] is 96%.
As to `NS(=O)(=O)OC[C@H]1C[C@@H](Nc2ncncc2C(=O)c2ccn(Cc3ccc(F)c(C4CC4)c3)n2)C[C@@H]1O` [Compound I-301, {(1R,2S,4R)-4-[(5-{[1-(3-cyclopropyl-4-fluorobenzyl)-1H-pyrazol-3-yl]carbonyl}pyrimidin-4-yl)amino]-2-hydroxycyclopentyl}methyl sulfamate], the IC50 was less than 0.01 µM. For the same compound, the inhibition at 0.111 µM under setting [1] was determined as 97%.
With `CC#CCn1ccc(C(=O)c2cncnc2N[C@@H]2C[C@H](COS(N)(=O)=O)[C@@H](O)[C@@H]2F)c1` [Compound I-195, {(1R,2R,3R,4R)-4-[(5-{[1-(but-2-yn-1-yl)-1H-pyrrol-3-yl]carbonyl}pyrimidin-4-yl)amino]-3-fluoro-2-hydroxycyclopentyl}methyl sulfamate], the IC50 was 0.01 to 0.1 µM. The inhibition at 0.111 µM under setting [1] was 90%.
`CC(c1ccccc1)n1ccc(C(=O)c2cncnc2N[C@@H]2C[C@H](COS(N)(=O)=O)[C@@H](O)[C@H]2O)n1` (single isomer, unassigned) [Compound I-361, {(1R,2R,3S,4R)-2,3-dihydroxy-4-[(5-{[1-((1S)-1-phenylethyl)-1H-pyrazol-3-yl]carbonyl}pyrimidin-4-yl)amino]cyclopentyl}methyl sulfamate or {(1R,2R,3S,4R)-2,3-dihydroxy-4-[(5-{[1-((1R)-1-phenylethyl)-1H-pyrazol-3-yl]carbonyl}pyrimidin-4-yl)amino]cyclopentyl}methyl sulfamate]: the half-maximal inhibitory concentration (IC50) was 0.01 to 0.1 µM. For the same compound, under “compound concentration 0.111 μM, 0.111 µM”, the “Percent Inhibition” value is listed as 85%.
For `CC(c1ccc(C(F)(F)F)o1)n1ccc(C(=O)c2cncnc2N[C@@H]2C[C@H](COS(N)(=O)=O)[C@@H](O)[C@@H]2F)c1` (single isomer, unassigned) [Compound I-304, [(1R,2R,3R,4R)-3-fluoro-2-hydroxy-4-({5-[(1-{(1S)-1-[5-(trifluoromethyl)-2-furyl]ethyl}-1H-pyrrol-3-yl)carbonyl]pyrimidin-4-yl}amino)cyclopentyl]methyl sulfamate or [(1R,2R,3R,4R)-3-fluoro-2-hydroxy-4-({5-[(1-{(1R)-1-[5-(trifluoromethyl)-2-furyl]ethyl}-1H-pyrrol-3-yl)carbonyl]pyrimidin-4-yl}amino)cyclopentyl]methyl sulfamate], the IC50 is 0.01 to 0.1 µM. The inhibition at 0.111 µM under setting [1] was determined as 91%.
For the compound `Cc1ccn(CCn2ccc(C(=O)c3cncnc3N[C@@H]3C[C@H](COS(N)(=O)=O)[C@@H](O)[C@H]3O)n2)n1` [Compound I-4, [(1R,2R,3S,4R)-2,3-dihydroxy-4-{[5-({1-[2-(3-methyl-1H-pyrazol-1-yl)ethyl]-1H-pyrazol-3-yl}carbonyl)pyrimidin-4-yl]amino}cyclopentyl]methyl sulfamate], the half-inhibitory concentration (IC50) was in the range of 0.01 to 0.1 µM. Under setting [1], the inhibition at 0.111 µM was found to be 80%.
